This is an account of results in ChEMBL document CHEMBL3351382, “New thiophene-1,2,4-triazole-5(3)-ones: highly bioactive thiosemicarbazides, structures of Schiff bases and triazole-thiols” (Eur J Med Chem, 2014).

≈ marks a conversion by molar mass, not a printed value. Calls of active or inactive are those of the source. The calls are words filed in the database; no cut-off is given here.

Data set [1] deals with Bacillus cereus. Kind of data set: Antimicrobial activity against Bacillus cereus 709 Roma after 24 hrs by agar dilution method. Format: functional.
Data set [2] has as its system Saccharomyces cerevisiae. Kind of data set: Antimicrobial activity against Saccharomyces cerevisiae RSKK 251 after 24 hrs by agar dilution method. Format: functional, organism-based. (In general: Agar dilution tests growth on a series of plates holding different concentrations.)
For data set [3], the system named is Staphylococcus aureus. Kind of data set: Antimicrobial activity against Staphylococcus aureus ATCC 25923 after 24 hrs by agar dilution method. The format is functional.
Data set [4] can be described thus: Antioxidant activity assessed as DPPH scavenging activity at 10 ug/ml after 60 mins by spectrophotometry. Format: physicochemical. The following applies: 1 h.
The nature of data set [5]: Antioxidant activity assessed as trolox equivalent of ferric ion reducing activity using fe3+-TPTZ at 200 ug/ml by FRAP assay. The format is physicochemical.
In data set [6] the test system is Yersinia pseudotuberculosis. The conditions noted are these: ATCC 911.
The test system of data set [7] is Pseudomonas aeruginosa. As to the kind of experiment: Antimicrobial activity against Pseudomonas aeruginosa ATCC 10145 after 24 hrs by agar dilution method. Format: functional, organism-based.
Data set [8] relates to Mycolicibacterium smegmatis. As to the kind of experiment: Antimicrobial activity against Mycobacterium smegmatis ATCC 607 after 24 hrs by agar dilution method. Format: functional.
In data set [9] the test system is Listeria monocytogenes. As to the kind of experiment: Antimicrobial activity against Listeria monocytogenes ATCC 43251 after 24 hrs by agar dilution method. The format is functional, organism-based.
The test system of data set [10] is Candida albicans. Kind of data set: Antimicrobial activity against Candida albicans ATCC 60193 after 24 hrs by agar dilution method. Format: functional, organism-based.
Data set [11] deals with Escherichia coli. Kind of data set: Antimicrobial activity against Escherichia coli ATCC 25922 after 24 hrs by agar dilution method. The format is functional, organism-based.
In data set [12] the test system is Enterococcus faecalis. Kind of data set: Antimicrobial activity against Enterococcus faecalis ATCC 29212 after 24 hrs by agar dilution method. The format is functional, organism-based.
A short description of data set [13]: Antioxidant activity assessed as DPPH scavenging activity at 200 ug/ml after 60 mins by spectrophotometry. The format is physicochemical. The following applies: 1 h.

With `Nn1c(Cc2cccs2)nn(CC(=O)NNC(=S)Nc2ccccc2)c1=O`, the MIC amounted to 5050 µg/mL (≈ 12.5 mM) in data set [1]; 2520 µg/mL (≈ 6.26 mM) in data set [3] (ATCC 25923, 24 h); 1260 µg/mL (≈ 3.13 mM) in data set [8] (ATCC 607, 24 h). Further, the MIC result in data set [2], in data set [6], in [7], in [9], in data set [10] and in data set [11] was “inactive” each time. Also, in data set [12], the MIC result was “inactive”. For the same compound, the Activity in data set [4] amounted to 83.4%; in data set [5] it was 584 µM.
In the case of `Nn1c(Cc2cccs2)nn(CC(=O)NNC(=S)Nc2ccc(F)cc2)c1=O`, the MIC result in data set [1], in [2], in [6], in [7], in data set [8] and in data set [9] was “inactive” in each case. Further, the MIC result in data set [10], in data set [11] and in data set [12] was “inactive” in each case. In data set [3] (ATCC 25923, 24 h), this compound registered an MIC of 2410 µg/mL (≈ 5.72 mM). Further, the Activity in data set [4] came out at 69%; in data set [5], 503 µM.
For `Cc1ccc(NC(=S)NNC(=O)Cn2nc(Cc3cccs3)n(N)c2=O)cc1`, the MIC entry in data set [1], in [2], in [6], in data set [7], in [9] and in [10] was “inactive” throughout. The MIC result in [11] and in [12] was “inactive” each time. The minimum inhibitory concentration (MIC) is 3220 µg/mL (≈ 7.72 mM) in data set [3] (ATCC 25923, 24 h) and 1610 µg/mL (≈ 3.86 mM) in data set [8] (ATCC 607, 24 h). Besides, the Activity in data set [4] was 88.2%; in [5], 1257 µM.
Regarding `Nn1c(Cc2cccs2)nn(CC(=O)NNC(=S)Nc2ccc(Br)cc2)c1=O`, the MIC in data set [1] was determined as 950 µg/mL (≈ 1.97 mM); in [3] (ATCC 25923, 24 h), 950 µg/mL (≈ 1.97 mM); in [8] (ATCC 607, 24 h), 950 µg/mL (≈ 1.97 mM). In addition, the MIC result in [2], in data set [6], in [7], in data set [9], in [10] and in [11] was “inactive” in each case. The MIC entry in data set [12] was “inactive”. The Activity in data set [4] amounted to 84.4%; in data set [5], 635 µM.
As to `O=C(Cn1nc(Cc2cccs2)n(/N=C/c2ccco2)c1=O)N/N=C/c1ccco1`, the values for the Activity in data set [13] and in [5] were 30.9% and 79 µM, respectively. For the same compound, the MIC result in [1], in data set [2], in data set [3], in [6], in [7] and in data set [8] was “inactive” in each case. Moreover, the MIC entry in data set [9], in data set [10], in data set [11] and in data set [12] was “inactive” each time.

Broadly, the MIC is the lowest concentration found to suppress growth.
